This experiment addresses ATR/ATRIP (Homo sapiens (Human), UniProt Q13535). Put plainly: ATR/ATRIP enzymatic assay (AlphaScreen, phosphorylation of p53). The note with it: read-out: ATR IC50; recombinant ATR/ATRIP 0.63 nM, 25 nM GST-p53, 3 μM ATP, 1 hour room temperature. (In general: Bead proximity is the source of the signal in Alpha formats.)
ATR/ATRIP, sequence (Q13535 whole entry): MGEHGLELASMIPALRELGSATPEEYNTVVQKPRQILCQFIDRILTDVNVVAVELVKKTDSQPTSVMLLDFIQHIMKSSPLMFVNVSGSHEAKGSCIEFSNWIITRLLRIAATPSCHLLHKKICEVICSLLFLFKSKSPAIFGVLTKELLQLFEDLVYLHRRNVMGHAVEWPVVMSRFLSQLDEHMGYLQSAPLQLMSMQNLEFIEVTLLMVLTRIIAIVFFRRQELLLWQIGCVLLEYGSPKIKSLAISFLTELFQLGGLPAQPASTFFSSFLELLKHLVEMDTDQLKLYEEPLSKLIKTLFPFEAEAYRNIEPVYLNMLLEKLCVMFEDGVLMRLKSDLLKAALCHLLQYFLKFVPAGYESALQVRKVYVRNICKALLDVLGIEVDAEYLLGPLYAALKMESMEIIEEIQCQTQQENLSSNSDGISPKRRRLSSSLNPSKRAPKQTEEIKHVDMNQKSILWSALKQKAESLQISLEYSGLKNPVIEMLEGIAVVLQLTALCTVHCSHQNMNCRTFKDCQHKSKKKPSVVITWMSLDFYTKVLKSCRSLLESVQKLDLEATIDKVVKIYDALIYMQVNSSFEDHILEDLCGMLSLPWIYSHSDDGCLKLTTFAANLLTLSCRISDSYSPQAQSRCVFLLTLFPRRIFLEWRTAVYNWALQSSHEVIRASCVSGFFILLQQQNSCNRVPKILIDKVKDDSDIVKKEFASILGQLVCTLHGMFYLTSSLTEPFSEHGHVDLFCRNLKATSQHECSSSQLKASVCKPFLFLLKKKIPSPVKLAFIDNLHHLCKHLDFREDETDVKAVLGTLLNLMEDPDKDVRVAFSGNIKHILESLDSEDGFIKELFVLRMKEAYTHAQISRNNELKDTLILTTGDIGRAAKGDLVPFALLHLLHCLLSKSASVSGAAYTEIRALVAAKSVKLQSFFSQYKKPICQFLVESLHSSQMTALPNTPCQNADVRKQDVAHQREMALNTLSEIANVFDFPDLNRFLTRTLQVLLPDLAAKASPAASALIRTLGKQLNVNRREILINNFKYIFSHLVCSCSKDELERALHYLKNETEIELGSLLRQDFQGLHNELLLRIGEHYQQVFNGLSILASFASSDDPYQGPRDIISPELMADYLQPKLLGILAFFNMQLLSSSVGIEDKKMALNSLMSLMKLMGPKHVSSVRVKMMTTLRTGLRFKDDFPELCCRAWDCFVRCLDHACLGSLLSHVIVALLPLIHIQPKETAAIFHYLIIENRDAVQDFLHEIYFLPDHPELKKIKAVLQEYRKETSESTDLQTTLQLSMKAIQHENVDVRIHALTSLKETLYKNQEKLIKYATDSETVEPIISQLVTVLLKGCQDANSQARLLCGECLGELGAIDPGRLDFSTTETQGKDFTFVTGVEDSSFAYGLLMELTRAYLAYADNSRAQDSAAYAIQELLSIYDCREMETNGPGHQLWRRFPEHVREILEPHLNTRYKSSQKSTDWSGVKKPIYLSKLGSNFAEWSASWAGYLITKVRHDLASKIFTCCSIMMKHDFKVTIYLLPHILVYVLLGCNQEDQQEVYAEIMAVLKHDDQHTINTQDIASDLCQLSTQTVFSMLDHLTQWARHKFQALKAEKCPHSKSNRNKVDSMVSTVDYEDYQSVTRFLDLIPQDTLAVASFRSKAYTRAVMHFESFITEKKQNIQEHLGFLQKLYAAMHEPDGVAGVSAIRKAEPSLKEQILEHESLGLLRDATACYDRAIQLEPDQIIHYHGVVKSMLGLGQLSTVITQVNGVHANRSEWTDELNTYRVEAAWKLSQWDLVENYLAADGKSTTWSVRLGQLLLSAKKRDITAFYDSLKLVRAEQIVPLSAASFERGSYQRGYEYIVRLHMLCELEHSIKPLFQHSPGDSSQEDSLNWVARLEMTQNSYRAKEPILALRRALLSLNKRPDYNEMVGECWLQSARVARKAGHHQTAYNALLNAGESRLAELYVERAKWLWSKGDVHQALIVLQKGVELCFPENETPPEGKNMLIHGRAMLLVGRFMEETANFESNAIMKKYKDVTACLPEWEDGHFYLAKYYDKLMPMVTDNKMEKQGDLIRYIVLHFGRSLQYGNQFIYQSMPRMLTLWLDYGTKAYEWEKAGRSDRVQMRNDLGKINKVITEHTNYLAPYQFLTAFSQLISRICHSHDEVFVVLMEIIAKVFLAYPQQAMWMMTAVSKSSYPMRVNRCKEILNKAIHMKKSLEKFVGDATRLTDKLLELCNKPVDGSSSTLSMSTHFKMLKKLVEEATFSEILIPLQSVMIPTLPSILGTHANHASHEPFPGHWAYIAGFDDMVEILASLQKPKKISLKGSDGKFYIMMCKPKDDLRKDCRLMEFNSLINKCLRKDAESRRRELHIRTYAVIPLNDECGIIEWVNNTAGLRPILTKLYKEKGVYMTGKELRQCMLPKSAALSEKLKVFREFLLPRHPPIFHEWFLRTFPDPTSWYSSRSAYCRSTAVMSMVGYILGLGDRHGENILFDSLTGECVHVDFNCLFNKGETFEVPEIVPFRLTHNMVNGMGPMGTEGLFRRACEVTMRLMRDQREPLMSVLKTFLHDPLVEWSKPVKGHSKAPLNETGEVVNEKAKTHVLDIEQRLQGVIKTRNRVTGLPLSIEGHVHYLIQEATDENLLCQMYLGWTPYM
ATR/ATRIP, sequence (Q8WXE1 whole entry partner): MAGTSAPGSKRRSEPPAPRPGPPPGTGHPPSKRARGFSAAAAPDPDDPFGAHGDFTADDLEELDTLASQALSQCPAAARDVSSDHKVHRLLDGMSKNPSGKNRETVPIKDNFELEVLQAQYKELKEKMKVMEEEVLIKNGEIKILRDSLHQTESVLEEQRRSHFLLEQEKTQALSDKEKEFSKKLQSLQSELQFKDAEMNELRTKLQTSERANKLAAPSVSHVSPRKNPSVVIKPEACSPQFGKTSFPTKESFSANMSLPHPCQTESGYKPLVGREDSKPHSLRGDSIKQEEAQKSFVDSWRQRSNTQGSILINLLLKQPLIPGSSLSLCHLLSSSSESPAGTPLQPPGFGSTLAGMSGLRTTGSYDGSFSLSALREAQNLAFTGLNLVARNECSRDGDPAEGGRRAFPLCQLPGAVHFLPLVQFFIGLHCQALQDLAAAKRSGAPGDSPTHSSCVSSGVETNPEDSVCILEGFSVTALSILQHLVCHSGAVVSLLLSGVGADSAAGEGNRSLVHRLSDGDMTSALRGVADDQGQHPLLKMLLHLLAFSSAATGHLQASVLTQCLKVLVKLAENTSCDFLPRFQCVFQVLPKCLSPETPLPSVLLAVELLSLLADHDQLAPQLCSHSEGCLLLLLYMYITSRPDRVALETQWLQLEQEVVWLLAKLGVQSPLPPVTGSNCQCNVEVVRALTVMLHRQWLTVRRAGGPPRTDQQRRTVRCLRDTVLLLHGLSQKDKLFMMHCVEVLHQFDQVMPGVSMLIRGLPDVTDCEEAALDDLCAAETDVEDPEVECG
Procedure: Detection of ATR kinase activity utilized the AlphaScreen system to measure the phosphorylation of the substrate protein p53. […] Plates were incubated at room temperature in the dark for 4 hours and read on a BMG Polarstar using AlphaScreen dedicated filters. […] IC50 values were determined using a 4-parameter fit algorithm.
With `C[C@@H]1COCCN1c1cc(N2CCCS2(=O)=O)c2cnn(-c3cc[nH]n3)c2n1` [Compound 54], the IC50 was determined as 0.023 µM.

For `C[C@@H]1COCCN1c1cc(-c2ccccc2S(C)(=O)=O)c2ccn(-c3cc[nH]n3)c2n1` [Compound 6, (R)-3-methyl-4-(4-(2-(methylsulfonyl)phenyl)-1-(1H-pyrazol-3-yl)-1H-pyrrolo[2,3-b]pyridin-6-yl)morpholine], the IC50 is 0.425 µM.

In the case of `COc1cc(N2CCOC[C@H]2C)nc2c1cnn2-c1cc[nH]n1` [Compound 51], the IC50 came to 0.141 µM.

In the case of `C[C@@H]1COCCN1c1cc(C(C)(C)C#N)c2ccn(-c3cc[nH]n3)c2n1` [Compound 11], the IC50 came out at 0.101 µM.

With `C[C@@H]1COCCN1c1cc(C(C)(C)O)c2cnn(-c3cccc(N)n3)c2n1` [Compound 65], the IC50 turned out to be 0.104 µM.

For the compound `C[C@@H]1COCCN1c1cc(N2CCCCS2(=O)=O)c2cnn(-c3cc[nH]n3)c2n1` [Compound 53], the IC50 is 0.009 µM.

Consider `C[C@@H]1COCCN1c1cc(C(C)(C)O)c2cnn(-c3cccnn3)c2n1` [Compound 67], for which the IC50 is 0.198 µM.

As to `C[C@@H]1COCCN1c1cc(-c2cccc(S(C)(=O)=O)c2)c2cnn(-c3ccn[nH]3)c2n1` [Compound 92], the IC50 was 0.008 µM.

As to `C[C@@H]1COCCN1c1cc(C2(C#N)CC[S+]([O-])CC2)c2cnn(-c3cc[nH]n3)c2n1` (stereo partly drawn) [Compound 75], the IC50 amounted to 0.029 µM.

On to `Cc1ccc(-c2cc(N3CCOC[C@H]3C)nc3c2ccn3-c2cc[nH]n2)nn1` [Compound 14], for which the IC50 was 1.15 µM.

Take `C[C@@H]1COCCN1c1cc(C(C)(C)C#N)c2cnn(-c3cc[nH]n3)c2n1` [Compound 24]: the IC50 stood at 0.006 µM.

As for `C[C@@H]1COCCN1c1cc(C(C)(C)C#N)c2cnn(-c3ncc[nH]3)c2n1` [Compound 90], the IC50 is 0.165 µM.

Consider `C[C@@H]1COCCN1c1nc2c(cnn2-c2cc[nH]n2)c(C(C)(C)C#N)c1Cl` [Compound 69], for which the IC50 turned out to be 0.554 µM.

With `COc1ccc(-c2cc(N3CCOC[C@H]3C)nc3c2c(C)cn3-c2cc[nH]n2)cn1` [Compound 21], the IC50 turned out to be 0.828 µM.

In the case of `C[C@@H]1COCCN1c1cc(I)c2cnn(-c3ccn[nH]3)c2n1` [Compound 42], the IC50 is 0.032 µM.

`C[C@@H]1COCCN1c1cc(C(C)(C#N)C2COC2)c2cnn(-c3cc[nH]n3)c2n1` (stereo partly drawn) [Compound 49]: the IC50 was found to be 0.011 µM.

With `COc1ccc(-c2cc(N3CCOC[C@H]3C)nc3c2ccn3-c2cc[nH]n2)cn1` [Compound 16], the IC50 was determined as 1.52 µM.

`C[C@@H]1COCCN1c1cc(C(=O)N2CCOCC2)c2ccn(-c3cc[nH]n3)c2n1` [Compound 18]: the IC50 came out at 1.94 µM.

As for `C[C@@H]1COCCN1c1cc(C2(C#N)CCS(=O)(=O)CC2)c2cnn(-c3cc[nH]n3)c2n1` [Compound 76], the IC50 is 0.036 µM.

In the case of `Cc1ccnc(-n2ncc3c(C(C)(C)O)cc(N4CCOC[C@H]4C)nc32)c1` [Compound 64], the IC50 came out at 0.092 µM.

Consider `C[C@@H]1COCCN1c1cc(C2(C#N)CCCC2)c2cnn(-c3cc[nH]n3)c2n1` [Compound 28], for which the concentration for half-maximal inhibition (IC50) came to 0.004 µM.

With `C[C@@H]1COCCN1c1cc(N(C)c2cccnc2)c2ccn(-c3cc[nH]n3)c2n1` [Compound 22], the IC50 was found to be 0.876 µM.

As for `C[C@@H]1COCCN1c1cc(C2(C#N)CCN(C(=O)OC(C)(C)C)CC2)c2cnn(-c3cc[nH]n3)c2n1` [Compound 81], the IC50 worked out at 0.008 µM.

In the case of `C[C@@H]1COCCN1c1cc(C2(C#N)CCOCC2)c2cnn(-c3cc[nH]n3)c2n1` [Compound 73], the IC50 was determined as 0.003 µM.

As for `C[C@@H]1COCCN1c1cc(C2(O)CCN(C)CC2)c2cnn(-c3cc[nH]n3)c2n1` [Compound 60], the IC50 worked out at 0.037 µM.

`C[C@@H]1COCCN1c1cc(-c2ccccc2F)c2cnn(-c3ccn[nH]3)c2n1` [Compound 48]: the IC50 came to 0.005 µM.

With `C[C@@H]1COCCN1c1cc(C2(O)CCC3(CC2)CSC3)c2cnn(-c3cc[nH]n3)c2n1` [Compound 61], the IC50 is 0.002 µM.

As to `C[C@@H]1COCCN1c1cc(C2(S(C)(=O)=O)CC2)c2ccn(-c3cn[nH]c3C(F)(F)F)c2n1` [Compound 37], the IC50 was more than 1 µM.

Regarding `C[C@@H]1COCCN1c1cc(S(=O)(=O)c2ccccc2)c2cnn(-c3cc[nH]n3)c2n1` [Compound 50], the IC50 is 0.116 µM.

On to `C[C@@H]1COCCN1c1cc(N(C)S(C)(=O)=O)c2cnn(-c3cc[nH]n3)c2n1` [Compound 52], for which the IC50 was 0.008 µM.

Take `C[C@@H]1COCCN1c1cc(C(C)(C)O)c2cnn(-c3ccccn3)c2n1` [Compound 63]: the IC50 was 0.011 µM.

For `Cc1cn(-c2cc[nH]n2)c2nc(N3CCOC[C@H]3C)cc(C(C)(C)C#N)c12` [Compound 7, (R)-2-methyl-2-(3-methyl-6-(3-methylmorpholino)-1-(1H-pyrazol-3-yl)-1H-pyrrolo[2,3-b]pyridin-4-yl)propanenitrile], the IC50 stood at 0.403 µM.

As for `C[C@@H]1COCCN1c1cc(C2(C#N)CCNC2)c2cnn(-c3cc[nH]n3)c2n1` (stereo partly drawn) [Compound 84], the IC50 was 0.009 µM.

Turning to `C[C@@H]1COCCN1c1cc(CC#N)c2cnn(-c3cc[nH]n3)c2n1` [Compound 32], the IC50 was determined as 0.054 µM.

`C[C@@H]1COCCN1c1cc(C2(CN)CCCCC2)c2cnn(-c3cc[nH]n3)c2n1` [Compound 78]: the IC50 was 0.024 µM.

Turning to `Cc1ccncc1-c1cc(N2CCOC[C@H]2C)nc2c1ccn2-c1cc[nH]n1` [Compound 9], the IC50 was 0.037 µM.

`C[C@@H]1COCCN1c1cc(C2(C#N)CCCCC2)c2cnn(-c3cc[nH]n3)c2n1` [Compound 5, (R)-1-(6-(3-methylmorpholino)-1-(1H-pyrazol-3-yl)-1H-pyrazolo[3,4-b]pyridin-4-yl)cyclohexane-1-carbonitrile]: the IC50 was determined as 0.003 µM.

For the compound `C[C@@H]1COCCN1c1cc(C(C)(C)O)c2cnn(-c3cc[nH]n3)c2n1` [Compound 2, (R)-2-(6-(3-methylmorpholino)-1-(1H-pyrazol-3-yl)-1H-pyrazolo[3,4-b]pyridin-4-yl)propan-2-ol], the IC50 came out at 0.04 µM.

Take `C[C@@H]1COCCN1c1cc(C2(C(N)=O)CCCCC2)c2cnn(-c3cc[nH]n3)c2n1` [Compound 77]: the IC50 is 0.005 µM.

Consider `C[C@@H]1COCCN1c1cc(-c2ccncn2)c2ccn(-c3cc[nH]n3)c2n1` [Compound 13], for which the IC50 was determined as 1.65 µM.

As to `C[C@@H]1COCCN1c1cc(C(N)=O)c2cnn(-c3cc[nH]n3)c2n1` [Compound 23], the half-maximal inhibitory concentration (IC50) turned out to be 0.264 µM.

On to `C[C@@H]1COCCN1c1cc(C(=O)N(C)Cc2ccccc2)c2ccn(-c3cc[nH]n3)c2n1` [Compound 19], for which the IC50 is 0.54 µM.

With `C[C@@H]1COCCN1c1cc(C(C)(C)C(N)=O)c2ccn(-c3cc[nH]n3)c2n1` [Compound 12], the IC50 came to 0.379 µM.

Turning to `C[C@@H]1COCCN1c1cc(-c2ccccc2F)c2cnn(-c3ccn[nH]3)c2n1` [Compound 91], the IC50 is less than 0.005 µM.

On to `CC(C)c1cc(N2CCOC[C@H]2C)nc2c1ccn2-c1cc[nH]n1` [Compound 31], for which the IC50 was found to be 1.42 µM.

For `Cc1cc(-n2ncc3c(C(C)(C)C#N)cc(N4CCOC[C@H]4C)nc32)[nH]n1` [Compound 86], the concentration for half-maximal inhibition (IC50) was less than 0.005 µM.

In the case of `Cc1c[nH]nc1-n1ccc2c(C3(S(C)(=O)=O)CC3)cc(N3CCOC[C@H]3C)nc21` [Compound 36], the IC50 is more than 1 µM.

For the compound `C[C@@H]1COCCN1c1cc(S(=O)(=O)C2CC2)c2cnn(-c3cc[nH]n3)c2n1` [Compound 45], the IC50 worked out at 0.005 µM.

The term IC50 denotes the concentration needed to halve the response being measured.

(Values after patent US12264155B2, “Compounds, pharmaceutical compositions, and methods of preparing compounds and of their use as ATR kinase inhibitors” (Repare Therapeutics Inc., priority 2018, dated 2025).)
